Assay results taken from patent publication US20250304717A1, “CAMPTOTHECIN DERIVATIVE AND LIGAND-DRUG CONJUGATE” (HAINAN SIMCERE ZAIMING PHARMACEUTICAL CO., LTD., priority 2022, published 2025).
Like-named read-outs stand apart in the source and are kept apart here.

B1: ADC-L1-19-8 (antibody, human IgG1, kappa, V domains shown)
VH: QVQLQESGPGLVKPSQTLSLTCTVSGYAFTAYNIHWVRQAPGQGLEWMGSFDPYDGGSSYNQKFKDRLTISKDTSKNQVVLTMTNMDPVDTATYYCARGWYYFDYWGHGTLVTVSS
VL: DIVMTQTPLSLPVTPGEPASISCRASKSISKYLAWYQQKPGQAPRLLIYSGSTLQSGIPPRFSGSGYGTDFTLTINNIESEDAAYYFCQQHDESPYTFGEGTKVEIKR
modifications: drug-linker L1-19 on cysteine thiols after TCEP reduction; positions not given; DAR 7.1 for the whole conjugate
notes: Antibody-drug conjugate
B2: ADC-L1-19-P1-8 (antibody, human IgG1, kappa, V domains shown)
VH: B1 VH
VL: B1 VL
modifications: drug-linker L1-19-P1 on cysteine thiols after TCEP reduction; positions not given; DAR 7.7 for the whole conjugate
notes: Antibody-drug conjugate
B3: ADC-L1-0-8 (antibody, human IgG1, kappa, V domains shown)
VH: B1 VH
VL: B1 VL
modifications: drug-linker L1-0 on cysteine thiols after TCEP reduction; positions not given; DAR 6.6 for the whole conjugate
B4: ROR1-Ab-1 (antibody, human IgG1, kappa, V domains shown)
VH: B1 VH
VL: B1 VL
notes: also called anti-human ROR1 monoclonal antibody ROR1-Ab-1

Assays:
SKBR3 cells = assay: Anti-tumor cell proliferation activity of compound of formula (D-H), Cell-Titer Glo, SKBR3; assay type: cell-based, human
Protocol: (§1) Cell culture: HCT116 cells and SKBR3 cells were cultured with a McCoy's 5a medium containing 10% fetal bovine serum+1% penicillin-streptomycin at 37° C. with 5% CO2, and OVCAR3 cells were cultured with a 1640 medium containing 20% fetal bovine serum+2 μg/mL bovine insulin+1% penicillin-streptomycin at 37° C. with 5% CO2. Cells at logarithmic growth phase were available for the experiment.
(§2) Cell proliferation activity test: The Cell-Titer Glo reagent was used to test the compound for inhibitory activity on proliferation of the three cell strains HCT116, SKBR3, and OVCAR3. HCT116 cells (1500 per well), SKBR3 cells (3000 per well), and OVCAR3 cells (5000 per well) were seeded on 96-well plates and incubated at 37° C. with 5% CO2 for 24 h. After a solution of the compound to be detected was added (the compound was dissolved in DMSO so that the compound concentration was 1 mM, then the compound was diluted to […] in DMSO at 9 concentrations in a 3-fold dilution, and 10 μL of the prepared compound solution was transferred to the 96-well plate so that the final concentration was 0-300 nM), the mixture was incubated at 37° C. with 5% CO2. HCT116 cells were cultured for 3 days, and SKBR3 cells and OVCAR3 cells were cultured for 5 days. The Cell-Titer Glo reagent was added and the cell activity was measured.
(§3) A negative control group and a positive control group were respectively used as Bottom and Top. The negative control group was not added with cells, only added with the culture medium in the same volume, and other operations were consistent with those of the experimental group. The positive control group was not added with the test drug, and other operations were consistent with those of the experimental group.
(§4) Data analysis: % Inhibition was calculated, and compound IC50 was fitted.
(§5) % Inhibition=1-100%×(Signal−Bottom)/(Top−Bottom).
(§6) Signal referred to the signal value of the experimental group, Bottom referred to the average signal value of the negative control group, and Top referred to the average signal value of the positive control group.

HCT116 cells = assay: Anti-tumor cell proliferation activity of compound of formula (D-H), Cell-Titer Glo, HCT116; assay type: cell-based; conditions: Homo sapiens, HCT-116, 72 h
Protocol: as §1, §2, §3, §4, §5, §6

OVCAR3 cells = assay: Anti-tumor cell proliferation activity of compound of formula (D-H), Cell-Titer Glo, OVCAR3; assay type: cell-based; conditions: Homo sapiens, OVCAR-3, 120 h
Protocol: as §1, §2, §3, §4, §5, §6

[1] = biological target: human ROR1 on stably transfected cell strain MCF7-hROR1 clone 2G2 (human, UniProt Q01973 30-406); assay: flow cytometry (FACS) on MCF7-hROR1 clone 2G2 cells, 5-fold dilutions from 100 nM, Alexa Fluor 647 anti-human IgG secondary antibody, four-parameter fit
Protocol: Stably transfected cell strain MCF7-hROR1 clone 2G2 constructed in the steps described above was expanded to a logarithmic growth phase in a T-75 cell culture flask, and the medium supernatant was discarded after centrifugation. The cell pellet was washed twice with PBS. […] After the mixture was washed twice with PBS, a secondary antibody was added: Alexa Fluor® 647 AffiniPure Goat Anti-Human IgG (H+L) (purchased from Jackson Immuno, Cat. No: 109-605-088), and the mixture was incubated at 4° C. for 1 h. After the mixture was washed twice with PBS, the cells were resuspended, and detected and analyzed by FACS (FACS Canto™, purchased from BD Biosciences). Data were analyzed by four-parameter curve fitting using Graphpad Prism software to give EC₅₀ values.

[2] = Homo sapiens, SK-BR-3, 120 h, read-out: SKBR3 Antiproliferative activity IC50 (nM), SKBR3 cells, 5 days
[3] = read-out: HCT116 Antiproliferative activity IC50 (nM), HCT116 cells, 3 days
[4] = read-out: OVCAR3 Antiproliferative activity IC50 (nM)

| Molecule | IC50 (SKBR3 cells; [2]) [nM] | IC50 (HCT116 cells; [3]) [nM] | IC50 (OVCAR3 cells; [4]) [nM] | further results |
| --- | --- | --- | --- | --- |
| CC[C@@]1(O)C(=O)OCc2c1cc1n(c2=O)Cc2c-1nc1cc(F)c(Cl)c(F)c1c2CNC(=O)[C@@H](C)O [Compound 25, (R)—N—(((S)-9-chloro-4-ethyl-8,10-difluoro-4-hydroxy-3,14-dioxo-3,4,12,14-tetrahydro-1H-pyrano[3′,4′:6,7]indolizino[1,2-b]quinolin-11-yl)methyl)-2-hydroxypropanamide] | 3.7 | < 10 | 2 | – |
| CC[C@@]1(O)C(=O)OCc2c1cc1n(c2=O)Cc2c-1nc1cc3c(cc1c2CNC(=O)C(O)C1CC1)OCO3 (stereo partly drawn) [Compound 14, 2-cyclopropyl-N—(((S)-7-ethyl-7-hydroxy-8,11-dioxo-7,8,11,13-tetrahydro-10H-[1,3]dioxolo[4,5-g]pyrano[3′,4′:6,7]indolizino[1,2-b]quinolin-14-yl)methyl)-2-hydroxyacetamide] | 2.2 | < 10 | 0.9 | – |
| CC[C@@]1(O)C(=O)OCc2c1cc1n(c2=O)Cc2c-1nc1cc(F)c(Cl)c(F)c1c2CNC(=O)CO [Compound 21, (S)-N-((9-chloro-4-ethyl-8,10-difluoro-4-hydroxy-3,14-dioxo-3,4,12,14-tetrahydro-1H-pyrano[3′,4′:6,7]indolizino[1,2-b]quinolin-11-yl)methyl)-2-hydroxyacetamide] | 4 | < 10 | 1.7 | – |
| CC[C@@]1(O)C(=O)OCc2c1cc1n(c2=O)Cc2c-1nc1cc3c(cc1c2CNC(=O)[C@@H](O)C1CC1)OCO3 [Compound 14-P1, (S)-2-cyclopropyl-N—(((S)-7-ethyl-7-hydroxy-8,11-dioxo-7,8,11,13-tetrahydro-10H-[1,3]dioxolo[4,5-g]pyrano[3′,4′:6,7]indolizino[1,2-b]quinolin-14-yl)methyl)-2-hydroxyacetamide] | – | < 10 | 0.6 | IC50 (SKBR3 cells; Homo sapiens, SK-BR-3, 120 h, SKBR3 cells, 5 days, read-out: SKBR3 Antiproliferative activity IC50): 2.1 nM |
| CC[C@@]1(O)C(=O)OCc2c1cc1n(c2=O)Cc2c-1nc1cc3c(cc1c2CNC(=O)C(O)C1CC1)OCO3 (stereo partly drawn) [Compound 14-P2, 2-cyclopropyl-N—(((S)-7-ethyl-7-hydroxy-8,11-dioxo-7,8,11,13-tetrahydro-10H-[1,3]dioxolo[4,5-g]pyrano[3′,4′:6,7]indolizino[1,2-b]quinolin-14-yl)methyl)-2-hydroxyacetamide] | – | – | – | IC50 (SKBR3 cells; read-out: SKBR3 Antiproliferative activity IC50, SKBR3 cells, 5 days): 3.5 nM; IC50 (HCT116 cells; HCT116 cells, 3 days, read-out: HCT116 Antiproliferative activity IC50): 10 to 100 nM; IC50 (OVCAR3 cells; OVCAR3 cells, 5 days, read-out: OVCAR3 Antiproliferative activity IC50): 1 nM |
| CC[C@@]1(O)C(=O)OCc2c1cc1n(c2=O)Cc2c-1nc1cc3c(c(F)c1c2CNC(=O)C(O)C1CC1)OCO3 (stereo partly drawn) [Compound 35, 2-cyclopropyl-N-(((S)-7-ethyl-15-fluoro-7-hydroxy-8,11-dioxo-7,8,11,13-tetrahydro-10H-[1,3]dioxolo[4,5-g]pyrano[3′,4′:6,7]indolizino[1,2-b]quinolin-14-yl)methyl)-2-hydroxyacetamide] | 3.5 | < 10 | 1.2 | – |
| CC[C@@]1(O)C(=O)OCc2c1cc1n(c2=O)Cc2c-1nc1cc(Cl)c(C)cc1c2CNC(=O)CO [Compound 6, (S)-N-((8-chloro-4-ethyl-4-hydroxy-9-methyl-3,14-dioxo-3,4,12,14-tetrahydro-1H-pyrano[3′,4′:6,7]indolizino[1,2-b]quinolin-11-yl)methyl)-2-hydroxyacetamide] | 4.8 | – | 2.1 | – |
| CC[C@@]1(O)C(=O)OCc2c1cc1n(c2=O)Cc2c-1nc1cc3c(c(Cl)c1c2CNC(=O)CO)OCO3 [Compound 31, (S)-N-((15-chloro-7-ethyl-7-hydroxy-8,11-dioxo-7,8,11,13-tetrahydro-10H-[1,3]dioxolo[4,5-g]pyrano[3′,4′:6,7]indolizino[1,2-b]quinolin-14-yl)methyl)-2-hydroxyacetamide] | – | < 10 | 0.2 | – |
| CC[C@@]1(O)C(=O)OCc2c1cc1n(c2=O)Cc2c-1nc1cc(F)c(Cl)c(F)c1c2CNC(=O)C(C)(C)O [Compound 22, (S)-N-((9-chloro-4-ethyl-8,10-difluoro-4-hydroxy-3,14-dioxo-3,4,12,14-tetrahydro-1H-pyrano[3′,4′:6,7]indolizino[1,2-b]quinolin-11-yl)methyl)-2-hydroxy-2-methylpropanamide] | 3.5 | < 10 | 1.4 | – |
| CC[C@@]1(O)C(=O)OCc2c1cc1n(c2=O)Cc2c-1nc1cc(F)c(Cl)c(F)c1c2CNC(=O)[C@H](C)O [Compound 26, (S)-N-(((S)-9-chloro-4-ethyl-8,10-difluoro-4-hydroxy-3,14-dioxo-3,4,12,14-tetrahydro-1H-pyrano[3′,4′:6,7]indolizino[1,2-b]quinolin-11-yl)methyl)-2-hydroxypropanamide] | 4.2 | < 10 | 1.6 | – |
| CC[C@@]1(O)C(=O)OCc2c1cc1n(c2=O)Cc2c-1nc1ccc3c(c1c2CNC(=O)C(O)C1CC1)CCC3 (stereo partly drawn) [Compound 13, 2-cyclopropyl-N—(((S)-8-ethyl-8-hydroxy-9,12-dioxo-2,3,8,9,12,14-hexahydro-1H,11H-cyclopenta[f]pyrano[3′,4′:6,7]indolizino[1,2-b]quinolin-15-yl)methyl)-2-hydroxyacetamide] | – | < 10 | 0.7 | – |
| CC[C@@]1(O)C(=O)OCc2c1cc1n(c2=O)Cc2c-1nc1cc(Cl)c3c(c1c2CNC(=O)C(O)C1CC1)CCC3 (stereo partly drawn) [Compound 34, N—(((S)-4-chloro-8-ethyl-8-hydroxy-9,12-dioxo-2,3,8,9,12,14-hexahydro-1H,11H-cyclopenta[f]pyrano[3′,4′:6,7]indolizino[1,2-b]quinolin-15-yl)methyl)-2-cyclopropyl-2-hydroxyacetamide] | – | < 10 | 0.6 | – |
| CC[C@@]1(O)C(=O)OCc2c1cc1n(c2=O)Cc2c-1nc1cc(F)c(Cl)c(F)c1c2CNC(=O)C(O)C1CC1 (stereo partly drawn) [Compound 23, N—(((S)-9-chloro-4-ethyl-8,10-difluoro-4-hydroxy-3,14-dioxo-3,4,12,14-tetrahydro-1H-pyrano[3′,4′:6,7]indolizino[1,2-b]quinolin-11-yl)methyl)-2-cyclopropyl-2-hydroxyacetamide] | 5.3 | < 10 | 3.9 | – |
| CC[C@@]1(O)C(=O)OCc2c1cc1n(c2=O)Cc2c-1nc1cc(Cl)c3c(c1c2CNC(=O)CO)CCC3 [Compound 33, (S)-N-((4-chloro-8-ethyl-8-hydroxy-9,12-dioxo-2,3,8,9,12,14-hexahydro-1H,11H-cyclopenta[f]pyrano[3′,4′:6,7]indolizino[1,2-b]quinolin-15-yl)methyl)-2-hydroxyacetamide] | – | < 10 | 0.8 | – |
| B1 | – | – | – | EC50 [1]: 0.68 nM |
| B2 | – | – | – | EC50 [1]: 0.34 nM |
| B3 | – | – | – | EC50 [1]: 0.75 nM |
| B4 | – | – | – | EC50 [1]: 0.99 nM |
